How the values were obtained:
[1] = human, in vivo, 4 weeks
Text: In order to identify genetic contributions to treatment response, the inventors carried out a genome-wide association study on genomic samples obtained from the IDEAL study, the design of which was reported in McHutchison et al., J. Viral Hepatol., Vol. 15, No. 7, July 2008, pp. 475-481). Briefly, in the IDEAL study, treatment-naive patients chronically infected with HCV genotype 1 were randomized (1:1:1) to receive one of the following 48-week treatment regimens: peginterferon alfa-2b (PEG2b) at 1.5 mcg/kg/week plus ribavirin (RBV); PEG2b at 1.0 mcg/kg/week plus RBV; or peginterferon alfa-2a (PEG2a) at 180 meg/week+RBV. In the PEG2b regimens, patients weighing 40-65 kg received 800 mg/day RBV; patients weighing more than 65 and up to 85 kg received 1000 mg/day RBV; patients weighing more than 85 and up to 105 kg received 1200 mg/day RBV; and patients weighing more than 105 kg received 1400 mg/day RBV). In the PEG2a regimen patients weighing <75 kg received 1000 mg/day of RBV while patients weighing ≧75 kg received 1200 mg/day of RBV. Hemoglobin values were measured at baseline (before the first dose of treatment), at week 2, 4, 8, 12, and then every 6 weeks up to treatment completion (48 weeks total). Follow-up measures were obtained at 4, 12 and 24 weeks post-treatment. […]

erythrocytes = erythrocytes versus plasma; cited from earlier work
[2] = taribavirin with PegIntron (peginterferon alfa-2b), clinical trials; cited from earlier work

NC(=O)c1ncn([C@@H]2O[C@H](CO)[C@@H](O)[C@H]2O)n1 [RBV, 1-[(2R,3R,4S,5R)-3,4-dihydroxy-5-(hydroxymethyl)oxolan-2-yl]-1H-1,2,4-triazole-3-carboxamide]
patients with Hb concentrations <10 g/dL (severe anemia) [1]: 13%

NC(=O)c1ncn([C@@H]2O[C@H](COP(=O)(O)OP(=O)(O)OP(=O)(O)O)[C@@H](O)[C@H]2O)n1 [RTP]
RTP concentration in erythrocytes relative to plasma (erythrocytes): 60 fold

N=C(N)c1ncn([C@@H]2O[C@H](CO)[C@@H](O)[C@H]2O)n1 [taribavirin, 1-(β-D-Ribofuranosyl)-1,2,4-triazole-3-carboximide]
anemia compared with patients treated with ribavirin and PegIntron [2]: less anemia
